What follows are compounds tested against T1, human TrkA receptor (Homo sapiens, UniProt P04629) (assay: DiscoverX PathHunter TrkA functional assay (NGF-stimulated U2OS cells)). Settings: U2OS cells expressing human TrkA-PK, Shc1-EA and p75NTR; compound 1 h, then NGF at ~80% of maximal response for 3 h; luminescence.
T1 construct: host or cells: U2OS cells (PathHunter cell line)
Assay type: cell-based

T1 sequence (P04629 33-796): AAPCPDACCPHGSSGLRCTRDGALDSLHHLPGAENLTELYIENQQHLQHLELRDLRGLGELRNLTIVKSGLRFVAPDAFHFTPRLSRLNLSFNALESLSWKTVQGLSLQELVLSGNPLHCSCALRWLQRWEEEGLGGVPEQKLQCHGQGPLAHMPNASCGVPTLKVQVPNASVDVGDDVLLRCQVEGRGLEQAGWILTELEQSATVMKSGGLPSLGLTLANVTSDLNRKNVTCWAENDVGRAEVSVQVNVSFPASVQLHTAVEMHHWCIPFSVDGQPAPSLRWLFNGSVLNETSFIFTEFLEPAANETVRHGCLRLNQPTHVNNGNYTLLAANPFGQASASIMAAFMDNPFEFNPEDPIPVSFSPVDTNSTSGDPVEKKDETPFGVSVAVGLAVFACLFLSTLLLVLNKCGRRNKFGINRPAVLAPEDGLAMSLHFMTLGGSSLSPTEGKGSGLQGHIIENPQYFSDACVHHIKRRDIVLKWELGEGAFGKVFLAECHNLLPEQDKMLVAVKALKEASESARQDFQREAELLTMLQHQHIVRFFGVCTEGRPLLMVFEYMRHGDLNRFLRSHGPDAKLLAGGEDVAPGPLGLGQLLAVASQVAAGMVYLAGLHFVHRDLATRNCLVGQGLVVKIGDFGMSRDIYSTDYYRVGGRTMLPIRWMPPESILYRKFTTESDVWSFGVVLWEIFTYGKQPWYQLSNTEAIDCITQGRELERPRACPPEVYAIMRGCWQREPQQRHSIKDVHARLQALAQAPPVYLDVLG

| IC50 | Structure (SMILES) |
| --- | --- |
| 0.85 nM | CC(O)c1ccn2nc(-c3ccccc3)c(NC(=O)c3cc(-c4ccn(C)n4)c(C(F)(F)F)cc3F)c2c1 (single isomer, unassigned) [Compound 107, (R or S)-2-fluoro-N-[5-(1-hydroxyethyl)-2-phenylpyrazolo[1,5-a]pyridin-3-yl]-5-(1-methyl-1H-pyrazol-3-yl)-4-(trifluoromethyl) benzamide] |
| 1.4 nM | CC(O)c1ccc2[nH]c(-c3ccccc3)c(NC(=O)c3cc(-c4ccn(C)n4)c(C(F)(F)F)cc3F)c2c1 (single isomer, unassigned) [Compound 112, (R or S)-2-fluoro-N-[5-(1-hydroxyethyl)-2-phenyl-1H-indol-3-yl]-5-(1-methyl-1H-pyrazol-3-yl)-4-(trifluoromethyl) benzamide] |
| 1.7 nM | CC(O)c1ccc2[nH]c(-c3ccccc3)c(NC(=O)c3cc(-c4ccn(C)n4)c(C(F)(F)F)cc3F)c2c1 (single isomer, unassigned) [Compound 113, (R or S)-2-fluoro-N-[5-(1-hydroxyethyl)-2-phenyl-1H-indol-3-yl]-5-(1-methyl-1H-pyrazol-3-yl)-4-(trifluoromethyl) benzamide] |
| 15 nM | Cn1ccc(-c2cc(C(=O)Nc3c(-c4ccccc4)nc4cc(C5CCCN5)ccn34)ccc2C(F)(F)F)n1 (single isomer, unassigned) [Compound 114, (R or S)-3-(1-methyl-1H-pyrazol-3-yl)-N-(2-phenyl-7-pyrrolidin-2-ylimidazo[1,2-a]pyridin-3-yl)-4-(trifluoromethyl) benzamide] |
| 550 nM | O=C(Nc1c(-c2ccccc2)nc2ccccn12)c1ccc(OC(F)(F)F)cc1 [Compound 1, N-(2-phenylimidazo[1,2-a]pyridin-3-yl)-4-(trifluoromethoxy) benzamide] |
| 139 nM | O=C(Nc1c(-c2ccccc2)nc2sccn12)c1ccc(C(F)(F)F)cc1F [Compound 2, 2-fluoro-N-(6-phenylimidazo[2,1-b][1,3]thiazol-5-yl)-4-(trifluoromethyl) benzamide] |
| 5.9 nM | Cn1ccc(-c2cc(C(=O)Nc3c(-c4ccccc4)nc4ncccn34)ccc2C(F)(F)F)n1 [Compound 3, 3-(1-methyl-1H-pyrazol-3-yl)-N-(2-phenylimidazo[1,2-a]pyrimidin-3-yl)-4-(trifluoromethyl) benzamide] |
| 1.4 nM | Cn1ccc(-c2cc(C(=O)Nc3c(-c4ccccc4)nc4ccccn34)ccc2C(F)(F)F)n1 [Compound 4, 3-(1-methyl-1H-pyrazol-3-yl)-N-(2-phenylimidazo[1,2-a]pyridin-3-yl)-4-(trifluoromethyl) benzamide] |
| 12 nM | Cn1ccc(-c2cc(C(=O)Nc3c(-c4ccccn4)nc4ccccn34)ccc2C(F)(F)F)n1 [Compound 5, 3-(1-methyl-1H-pyrazol-3-yl)-N-(2-pyridin-2-ylimidazo[1,2-a]pyridin-3-yl)-4-(trifluoromethyl) benzamide] |
| 3.9 nM | Cn1ccc(-c2cc(C(=O)Nc3c(-c4ccccc4)nc4cccnn34)ccc2C(F)(F)F)n1 [Compound 6, 3-(1-methyl-1H-pyrazol-3-yl)-N-(2-phenylimidazo[1,2-b]pyridazin-3-yl)-4-(trifluoromethyl) benzamide] |
| 264 nM | CC(C)c1cccc2nc(-c3ccccc3)c(NC(=O)c3ccc(C(F)(F)F)cc3F)n12 [Compound 7, 2-fluoro-N-[5-(1-methylethyl)-2-phenylimidazo[1,2-a]pyridin-3-yl]-4-(trifluoromethyl) benzamide] |
| 568 nM | Cn1ccc(-c2cc(C(=O)Nc3c(-c4ccncn4)nc4ccccn34)ccc2C(F)(F)F)n1 [Compound 8, 3-(1-methyl-1H-pyrazol-3-yl)-N-(2-pyrimidin-4-ylimidazo[1,2-a]pyridin-3-yl)-4-(trifluoromethyl) benzamide] |
| 8.8 nM | O=C(Nc1c(-c2ccccc2)nc2ccccn12)c1ccc(C(F)(F)F)c(-c2cc[nH]n2)c1 [Compound 9, N-(2-phenylimidazo[1,2-a]pyridin-3-yl)-3-(1H-pyrazol-3-yl)-4-(trifluoromethyl) benzamide] |
| 1920 nM | O=C(Nc1c(-c2ccno2)nc2ccccn12)c1ccc(C(F)(F)F)cc1F [Compound 10, 2-fluoro-N-(2-isoxazol-5-ylimidazo[1,2-a]pyridin-3-yl)-4-(trifluoromethyl) benzamide] |
| 3.2 nM | O=C(Nc1c(-c2ccccc2)nc2ccccn12)c1ccc(C(F)(F)F)c(-c2ccn(C(F)F)n2)c1 [Compound 11, 3-[1-(difluoromethyl)-1H-pyrazol-3-yl]-N-(2-phenylimidazo[1,2-a]pyridin-3-yl)-4-(trifluoromethyl) benzamide] |
| 1.9 nM | Cn1ccc(-c2cc(C(=O)Nc3c(-c4ccccc4)nc4sccn34)ccc2C(F)(F)F)n1 [Compound 12, 3-(1-methyl-1H-pyrazol-3-yl)-N-(6-phenylimidazo[2,1-b][1,3]thiazol-5-yl)-4-(trifluoromethyl) benzamide] |
| 17 nM | Cc1cnn(-c2nc3ccccn3c2NC(=O)c2ccc(C(F)(F)F)c(-c3ccn(C)n3)c2)c1 [Compound 13, 3-(1-methyl-1H-pyrazol-3-yl)-N-[2-(4-methyl-1H-pyrazol-1-yl)imidazo[1,2-a]pyridin-3-yl]-4-(trifluoromethyl) benzamide] |
| 3.3 nM | Cc1coc(-c2cc(C(=O)Nc3c(-c4ccccc4)nc4ccccn34)ccc2C(F)(F)F)n1 [Compound 14, 3-(4-methyl-1,3-oxazol-2-yl)-N-(2-phenylimidazo[1,2-a]pyridin-3-yl)-4-(trifluoromethyl) benzamide] |
| 26 nM | Cc1ccc(C(=O)Nc2c(-c3ccccc3)nc3ccccn23)cc1-c1ccn(C)n1 [Compound 15, 4-methyl-3-(1-methyl-1H-pyrazol-3-yl)-N-(2-phenylimidazo[1,2-a]pyridin-3-yl)benzamide] |
| 556 nM | Cc1nc(-c2nc3ccccn3c2NC(=O)c2ccc(C(F)(F)F)c(-c3ccn(C)n3)c2)co1 [Compound 16, N-[2-(2-methyl-1,3-oxazol-4-yl)imidazo[1,2-a]pyridin-3-yl]-3-(1-methyl-1H-pyrazol-3-yl)-4-(trifluoromethyl) benzamide] |
| 9.2 nM | Cn1ccc(-c2cc(C(=O)Nc3c(-c4ccccc4)nc4scnn34)ccc2C(F)(F)F)n1 [Compound 17, 3-(1-methyl-1H-pyrazol-3-yl)-N-(6-phenylimidazo[2,1-b][1,3,4]thiadiazol-5-yl)-4-(trifluoromethyl) benzamide] |
| 11 nM | O=C(Nc1c(-c2ccccc2)nc2c(F)cccn12)c1ccc(C(F)(F)F)c(-c2cc[nH]n2)c1 [Compound 18, N-(8-fluoro-2-phenylimidazo[1,2-a]pyridin-3-yl)-3-(1H-pyrazol-3-yl)-4-(trifluoromethyl) benzamide] |
| 14 nM | Cc1nc(-c2nc3ccccn3c2NC(=O)c2ccc(C(F)(F)F)c(-c3ccn(C)n3)c2)cs1 [Compound 19, 3-(1-methyl-1H-pyrazol-3-yl)-N-[2-(2-methyl-1,3-thiazol-4-yl)imidazo[1,2-a]pyridin-3-yl]-4-(trifluoromethyl) benzamide] |
| 0.73 nM | Cn1ccc(-c2cc(C(=O)Nc3c(-c4ccccc4)nc4ccccn34)c(Cl)cc2C(F)(F)F)n1 [Compound 20, 2-chloro-5-(1-methyl-1H-pyrazol-3-yl)-N-(2-phenylimidazo[1,2-a]pyridin-3-yl)-4-(trifluoromethyl) benzamide] |
